Series [1] concerns L1 adipocytes. Kind of series: Inflammation markers in L1 adipocytes treated with palmitate (RT-qPCR). The series is classed as cell-based, Mice. To be noted: palmitate 500 μM, 10 mM, 24 hours (FIG. 79). The method, then:
FIG. 79. […] Differentiated L1 adipocytes (cells) were treated for 24 hours with palmitate (500 μM), either in the presence or in the absence of SLN1 or SLN10 (10 mM). Subsequently, the relative expression of inflammation markers was analyzed by RT and qPCR, using HPRT-1 as a normalizer and as a reference for expression levels of non-treated cells (MCP-1 and IL-12), and for those treated only with palmitate (proIL-1β, TNFα, iNOS, IL-6). Briefly, once finished, culture media treatments were collected for subsequent analysis, cells were washed with PBS, and RNA was extracted (illustra RNAspin Mini, GE Healthcare) and retro-transcribed (High Capacity cDNA Reverse Transcription Kit, Life Technologies); then, the genes under study were analyzed by using a quantitative PCR with specific probes (TaqMan® Gene Expression Assays, Life Technologies), estimating the relative quantification (RQ) with the ΔΔ Ct method.
Palmitate is a saturated fatty acid that simulates an experimental obese state. It can be used as a pro-inflammatory stimulant for cytokines such as proIL-1β, TNFα, INOS, IL-6, MCP-1, and IL-12. Adipocytes cultured in the absence or presence of palmitate were treated with SLN1 or SLN10, and the expression of inflammation markers was determined by quantitative RT-PCR (FIG. 79).

Series [2] is described as follows: Metformin association with lysine in aqueous solution (1H NMR titration). It is filed as physicochemical. The conditions noted are these: 1×PBS, pH 7.5, WINEQNMR2. The method, then:
Specifically, 500 μL of a 10 mM lysine solution in buffer […] were introduced in an NMR tube, and the pH was adjusted to 7.5; moreover, […] of deuterated methanol was added, and the NMR proton spectrum was recorded (^1H). […] Increasing amounts of the metformin dissolution were added to the amino acid dissolution, and the ^1H NMR spectrum was recorded after each addition until reaching 20 equivalents.
The alpha proton signal of lysine (triplet to 3.76 ppm, FIG. 100) first shifted to lower […] and then to higher values. […] The complexation constant was calculated to be 828±42 (FIG. 101).

Series [3] concerns GPBP. The series is described as follows: GPBP Western blot of treated A549 cells. The series is classed as cell-based. To be noted: 10 mM, 3 hours. The procedure:
After the incubation time, cells were washed twice with PBS and lysed in 25 mM Tris-HCl, pH 7.4, 140 mM NaCl, 3 mM KCl, 20 mM NaF, 1 mM PMSF, 10 μg/mL leupeptin, 1% Triton X-100 for 20 min at 4° C. The lysates were centrifuged at 20,000×g for 10 min at 4° C., supernatants were recovered, and protein concentration determined
Equal amounts of each lysate (40 μg) were analyzed by Western blot, with monoclonal antibodies against GPBP N27 (Fibrostatin SL) and against tubulin (Sigma). Electrophoresis was performed in polyacrylamide gel (6.5%) with SDS, after which electroblotting was carried out to PVDF membrane (Immobilon P, Millipore Merck). After transfer, the membranes were blocked in 5% skim milk in 25 mM Tris-HCl, pH 7.5, 150 mM NaCl, 0.05% Tween-20 (TBST) for 45 min, and then incubated with primary antibodies diluted in blocking solution for 16 hours at 4° C. Thereafter, the membranes were washed with TBST (3×5 minutes) and incubated with secondary antibodies against mouse IgG, conjugated to horseradish peroxidase (HRP) (Sigma) for 1 hours at room temperature while stirring. After further washes with TBST (3×5 minutes), the chemiluminescence disclosure was performed by using the ECL Prime reagent (GE Healthcare) and the image generation system ImageQuant LAS 4000 Mini (GE Healthcare).
The Western blots disclosure images were analyzed with the ImageJ WCIF program.
A general note: Immunoblotting shows a protein as a band on a membrane.

Entries after “also recorded” stand apart in the source; their conditions may differ.

As for metformin lysinate, the “attenuation of inflammatory response of adipocytes stimulated with palmitate” value in series [1] was “much more effective”. In series [2], this substance displayed a complexation constant of 828±42. Moreover, the “GPBP polypeptides reactive with N27” value in series [3] (pH 7.5, listed as SLN10) is “more abundant in culture extracts treated with SLN10; also recorded: shifts to positions of less molecular weight”; in series [3] (pH 9.3), “shifts to positions of less molecular weight”.

The values are drawn from patent US11510886B2, “Metformin amino acid compounds and methods of using the same” (Laboratorios Silancs S.A. DE C.V., priority 2016, dated 2022).
